Source: patent US8022043B2, “Ceramide derivatives as modulators of immunity and autoimmunity” (Albert Einstein College of Medicine of Yeshiva University, priority 2004, dated 2011)

How the values were obtained:
Assay type in all cases: cell-based
[1] = test system: Bulk splenocytes from C57BL/6 mice; assay: Splenocyte proliferation assay (3H-thymidine incorporation); conditions: concentration giving 50% maximal response in proliferation of splenocyte cultures, 3H-thymidine incorporation
Experimental: The results were obtained using a splenocyte proliferation assay according to the following procedure: Bulk splenocytes from C57BL/6 mice were plated at 300,000 per well in 96-well flat-bottom tissue culture plates with the indicated ceramide-like glycolipid diluted in complete medium to the concentrations shown. After 48 h at 37° C., the plate wells were pulsed with 20 microliters of medium containing 50 microCi/ml ^3H-thymidine and incubated for a further 18 h. Cell proliferation was estimated by harvesting pulsed cells onto 96-well filtermats and scintillation counting on a 1450 Microbeta Trilux instrument (Wallac/Perkin Elmer, Boston, Mass.).

[2] = test system: Bulk splenocytes from C57BL/6 mice; assay: Cytokine response of splenocyte cultures (IL-4 and IFNγ ELISA); conditions: 500 nM glycolipid, 48 hours; for Cytokine Response IFNγ / Cytokine Response IL-4: culture supernatant ELISA, ND = below the reliable level for detection
Experimental: The cytokine response reported in Table 1 and FIG. 5C was determined by the following procedure: Bulk splenocytes from C57BL/6 mice were plated at 300,000 per well in 96-well flat-bottom tissue culture plates with ceramide-like glycolipids diluted to a concentration of 500 nM in 200 microliters complete medium. After 48 h at 37° C., 150 microliters of supernatant was removed for cytokine measurements. Supernatant levels of IL-4, and IFNγ were measured by standard enzyme-linked immunosorbent assay (ELISA), using capture and biotinylated detection antibody pairs (clones 11B11/BVD6-24G2-biotin, and R4-6A2/XMG1.2-biotin, respectively, from BD Pharmingen, San Diego, Calif.). […] Standards for IL-4 and IFNγ were from Peprotech (Rocky Hill, N.J.).

NK T cells = assay: NK T cell activation screens (Example, FIG. 5 and Table 1); conditions: see Example
Description: Using these methods, we produced more than 60 novel amino substituted analogues of KRN7000. These were screened in a functional assay that assessed the ability of the compounds to activate NK T cell hybridomas in the presence of various types of cells expressing CD1d, or in the presence of recombinant CD1d proteins bound to the tissue culture plate surface (FIG. 5).

iNKT cells = assay: In vitro cytokine modulation, murine cell assay system; conditions: for in vitro activity at modulating cytokines: murine cell assay system; for IFNγ induction: DB03-3: in some murine strains
Description: The term iNKT cells, as used herein, mean the specific subset of CD1d-dependent T cells that expresses the invariant TCRα chain rearrangement consisting of Vα14-Jα18 in mice, and Vα24-Jα18 in humans. These cells are uniformly reactive to α-galactosylceramides presented by CD1d. These cells are also referred to as “Type 1” NKT cells, and the distinction between the different types of NKT cells and the nomenclature relating to this are summarized in the publication by Godfrey et al., Nat Rev Immunol. 2004 March; 4(3):231-7. Methods for determining cytokine production by iNKT cells in response to CD1d-presented glycolipids for determination of strong or weak agonist activity are described in Yu K O A, Im J S, Molano A, Dutronc Y, Illarionov P A, Forestier C, Fujiwara N, Arias I, Miyake S, Yamamura T, Chang Y-T, Besra G S, Porcelli S A, Modulation of CD1d-restricted NKT cell responses using N-acyl variants of α-galactosylceramides, Proc. Nat. Acad. Sci. (USA), 102:3383-8 (2005), see also Godfrey D I et al., Nat Rev Immunol. 2004 March; 4(3):231-7.

SMILES	EC50 [1] [nM]	IL-4/IFNγ ratio divided by this ratio for DB01-1 (value in parentheses) [2]	ratio IL-4/IFNγ [2]	Cytokine Response IFNγ [2] [ng/mL]	Cytokine Response IL-4 [2] [ng/mL]	effectiveness of compound (NK T cells)	in vitro activity at modulating cytokines (iNKT cells)	IL-2 induction (iNKT cells; in vitro)	IL-4 induction (iNKT cells; in vitro)	IFNγ induction (iNKT cells; in vitro)
CCCCCCCCCCCCCC[C@@H](O)[C@@H](O)[C@H](CO[C@H]1O[C@H](CO)[C@H](O)[C@H](O)[C@H]1O)NC(=O)C(OC)c1ccccc1 (some centres unmarked) [YTCO3-48]	86.9	0.6	0.016	12.56	0.20	–	–	–	–	–
CCCCCCCCCCCCCC[C@@H](O)[C@@H](O)[C@H](CO[C@H]1O[C@H](CO)[C@H](O)[C@H](O)[C@H]1O)NC(=O)Cc1c(F)cccc1Cl [YTCO3-49]	57.1	1.1	0.028	4.57	0.13	–	–	–	–	–
CCCCCCCCCCCCCC[C@@H](O)[C@@H](O)[C@H](CO[C@H]1O[C@H](CO)[C@H](O)[C@H](O)[C@H]1O)NC(=O)[C@H](Cc1ccccc1)NC(=O)OC(C)(C)C [YTCO3-57]	2190	–	–	–	–	–	–	–	–	–
CCCCCCCCCCCCCC[C@@H](O)[C@@H](O)[C@H](CO[C@H]1O[C@H](CO)[C@H](O)[C@H](O)[C@H]1O)NC(=O)Cc1ccc(C)cc1 [YTCO3-51]	63.8	0.2	0.006	9.03	0.05	–	–	–	–	–
CCCCCCCCCCCCCC[C@@H](O)[C@@H](O)[C@H](CO[C@H]1O[C@H](CO)[C@H](O)[C@H](O)[C@H]1O)NC(=O)C(c1ccccc1)C1CCCC1 (some centres unmarked) [YTCO3-50]	5.4	0.3	0.007	9.47	0.07	Particularly effective	–	–	–	–
CCCCCCCCCCCCCC[C@@H](O)[C@@H](O)[C@H](CO[C@H]1O[C@H](CO)[C@H](O)[C@H](O)[C@H]1O)NC(=O)C1(c2ccccc2)CCCC1 [YTCO3-46]	4.8	1.0	0.026	8.52	0.22	Particularly effective	–	–	–	–
CCCCCCCCCCCCCCC(O)C(O)C(COC1OC(CO)C(O)C(O)C1O)NC(=O)Cc1ccccc1OC (centres unmarked) [YTCO3-43]	86.9	0.7	0.018	19.50	0.35	–	–	–	–	–
CCCCCCCCCCCCCC[C@@H](O)[C@@H](O)[C@H](CO[C@H]1O[C@H](CO)[C@H](O)[C@H](O)[C@H]1O)N=[N+]=[N-] [DB03-7]	–	–	–	–	–	–	show in vitro activity	–	–	–
CCCCCCCCCCCCCCC(O)C(O)C(COC1OC(CO)C(O)C(O)C1O)NC(=O)C=Cc1ccccc1 (centres unmarked) [YTCO3-42]	> 2500	–	–	–	–	–	–	–	–	–
CCCCCCCCCCCCCCC(O)C(O)C(COC1OC(CO)C(O)C(O)C1O)NC(=O)Cc1ccccc1Cl (centres unmarked) [YTCO3-45]	222	1.6	0.041	15.26	0.63	–	–	–	–	–
CCCCCCCCCCCCCCC(O)C(O)C(COC1OC(CO)C(O)C(O)C1O)NC(=O)CCCCC (centres unmarked) [YTC03-31]	–	–	–	–	–	Particularly effective	–	–	–	–
CCCCCCCCCCCCCCC(O)C(O)C(COC1OC(CO)C(O)C(O)C1O)NC(=O)CCCCCCCCCCC (centres unmarked) [YTC03-35]	–	–	–	–	–	Particularly effective	–	–	–	–
CCCCCCCCCCCCCC[C@@H](O)[C@@H](O)[C@H](CO[C@H]1O[C@H](CO)[C@H](O)[C@H](O)[C@H]1O)NC(=O)C(CC)c1ccccc1 (some centres unmarked) [YTCO3-61]	72.4	0.9	0.023	7.50	0.17	–	–	–	–	–
CCCCCCCCCCCCCC[C@@H](O)[C@@H](O)[C@H](COC1OC(CO)C(O)C(O)C1O)NC(=O)Cc1ccc(OC)cc1 (some centres unmarked) [YTC03-33]	–	–	–	–	–	Particularly effective	–	–	–	–
CCCCCCCCCCCCCC[C@@H](O)[C@@H](O)[C@H](CO[C@H]1O[C@H](CO)[C@H](O)[C@H](O)[C@H]1O)NC(=O)C(C)(c1ccccc1)c1ccccc1 [YTCO3-58]	51.8	0.9	0.024	8.64	0.21	–	–	–	–	–
CCCCCCCCCCCCCC[C@@H](O)[C@@H](O)[C@H](CO[C@H]1O[C@H](CO)[C@H](O)[C@H](O)[C@H]1O)NC(=O)Cc1cccc(C)c1 [YTCO3-52]	17	0.7	0.019	10.25	0.19	–	–	–	–	–
CCCCCCCCCCCCCCC(O)C(O)C(COC1OC(CO)C(O)C(O)C1O)NC(=O)Cc1ccc2c(c1)OCO2 (centres unmarked) [YTCO3-44]	57.1	3.7	0.097	14.19	1.38	–	–	–	–	–
CCCCCCCCCCCCCC[C@@H](O)[C@@H](O)[C@H](CO[C@H]1O[C@H](CO)[C@H](O)[C@H](O)[C@H]1O)NC(=O)Cc1cc(OC)ccc1OC [YTCO3-54]	17.2	0.4	0.011	10.39	0.11	–	–	–	–	–
CCCCC/C=C\C/C=C\CCCCCCCC(=O)N[C@@H](COC1OC(CO)C(O)C(O)C1O)[C@H](O)[C@H](O)CCCCCCCCCCCCCC (some centres unmarked) [DB03-10]	–	–	–	–	–	–	show in vitro activity	weak inducers of IL-2	strong inducers of IL-4	moderate inducers of IFNγ
CCCCCCCCCCCCCC[C@@H](O)[C@@H](O)[C@H](CO[C@H]1O[C@H](CO)[C@H](O)[C@H](O)[C@H]1O)NC(=O)c1ccc(OCCCCCCC)cc1 [YTCO3-53]	38	1.2	0.030	0.67	0.02	–	–	–	–	–
CCCCCCCC/C=C\CCCCCCCCCC(=O)N[C@@H](COC1OC(CO)C(O)C(O)C1O)[C@H](O)[C@H](O)CCCCCCCCCCCCCC (some centres unmarked) [DB03-3]	–	–	–	–	–	–	show in vitro activity	–	good inducer of L-4	strong inducer of IFNγ
